Assay results from the NIST ThermoML archive (doi:10.1021/je800234h).

Assay: mn = molality of the nth substance listed, in mol/kg
Conditions: Liquid, Vibrating tube method

[Ca+2].[Cl-].[Cl-] [calcium chloride] + CCO
Conditions	mass density [kg/m3]
298.15 K, 210 kPa, m1 = 1.55	901.58
298.15 K, 260 kPa, m1 = 1.266	881.44
298.15 K, 280 kPa, m1 = 0.1743	800.14
298.15 K, 480 kPa, m1 = 0.09327	793.4
298.15 K, 670 kPa, m1 = 0.9896	861.73
298.15 K, 1020 kPa, m1 = 0.4379	820.65
298.15 K, 1170 kPa, m1 = 0.6899	839.86
298.15 K, 5010 kPa, m1 = 0.6899	843.06
298.15 K, 5020 kPa, m1 = 1.55	905.41
298.15 K, 5030 kPa, m1 = 0.4379	824.03
298.15 K, 5060 kPa, m1 = 0.09327	797.34
298.15 K, 5060 kPa, m1 = 1.266	885.32
298.15 K, 6330 kPa, m1 = 0.9896	866.36
298.15 K, 6580 kPa, m1 = 0.1743	804.98
298.15 K, 10030 kPa, m1 = 0.09327	801.45
298.15 K, 10410 kPa, m1 = 1.55	909.48
298.15 K, 10450 kPa, m1 = 0.4379	828.43
298.15 K, 10830 kPa, m1 = 0.9896	869.87
298.15 K, 10850 kPa, m1 = 1.266	889.78
298.15 K, 11050 kPa, m1 = 0.6899	847.88
298.15 K, 11330 kPa, m1 = 0.1743	808.85
298.15 K, 14860 kPa, m1 = 1.266	892.71
298.15 K, 15090 kPa, m1 = 0.9896	873.05
298.15 K, 15120 kPa, m1 = 0.6899	850.99
298.15 K, 15240 kPa, m1 = 1.55	912.94
298.15 K, 15470 kPa, m1 = 0.09327	805.77
298.15 K, 15480 kPa, m1 = 0.4379	832.33
298.15 K, 15720 kPa, m1 = 0.1743	812.29
298.15 K, 20020 kPa, m1 = 0.9896	876.57
298.15 K, 20080 kPa, m1 = 1.266	896.35
298.15 K, 20130 kPa, m1 = 0.6899	854.64
298.15 K, 20260 kPa, m1 = 1.55	916.34
298.15 K, 20460 kPa, m1 = 0.4379	836.02
298.15 K, 20490 kPa, m1 = 0.1743	815.89
298.15 K, 20640 kPa, m1 = 0.09327	809.69
298.15 K, 25010 kPa, m1 = 1.55	919.38
298.15 K, 25130 kPa, m1 = 0.9896	880.03
298.15 K, 25310 kPa, m1 = 0.6899	858.24
298.15 K, 25390 kPa, m1 = 0.09327	813.15
298.15 K, 25410 kPa, m1 = 1.266	899.86
298.15 K, 25750 kPa, m1 = 0.4379	839.75
298.15 K, 25820 kPa, m1 = 0.1743	819.73
298.15 K, 30060 kPa, m1 = 1.266	902.74
298.15 K, 30110 kPa, m1 = 0.9896	883.22
298.15 K, 30120 kPa, m1 = 0.6899	861.41
298.15 K, 30190 kPa, m1 = 0.09327	816.48
298.15 K, 30420 kPa, m1 = 1.55	922.62
298.15 K, 30640 kPa, m1 = 0.4379	843.03
298.15 K, 31460 kPa, m1 = 0.1743	823.58
298.15 K, 34210 kPa, m1 = 0.6899	863.97
298.15 K, 35050 kPa, m1 = 1.55	925.22
298.15 K, 35340 kPa, m1 = 0.1743	826.11
298.15 K, 35510 kPa, m1 = 0.9896	886.47
298.15 K, 35640 kPa, m1 = 0.09327	820.09
298.15 K, 35830 kPa, m1 = 0.4379	846.33
298.15 K, 35910 kPa, m1 = 1.266	906.14
298.15 K, 39770 kPa, m1 = 0.6899	867.27
298.15 K, 39860 kPa, m1 = 0.9896	888.93
298.15 K, 39920 kPa, m1 = 0.09327	822.78
298.15 K, 39960 kPa, m1 = 1.55	927.8
298.15 K, 39970 kPa, m1 = 0.4379	848.83
298.15 K, 39980 kPa, m1 = 1.266	908.34
298.15 K, 40180 kPa, m1 = 0.1743	829.13
323.15 K, 150 kPa, m1 = 0.09327	771.32
323.15 K, 240 kPa, m1 = 0.1743	777.83
323.15 K, 310 kPa, m1 = 1.266	857.3
323.15 K, 450 kPa, m1 = 0.4379	798.42
323.15 K, 520 kPa, m1 = 1.55	876.88
323.15 K, 1060 kPa, m1 = 0.6899	817.18
323.15 K, 1570 kPa, m1 = 0.9896	839.21
323.15 K, 4980 kPa, m1 = 0.4379	802.82
323.15 K, 5060 kPa, m1 = 0.1743	782.74
323.15 K, 5070 kPa, m1 = 1.266	861.31
323.15 K, 5120 kPa, m1 = 1.55	881.08
323.15 K, 5160 kPa, m1 = 0.9896	842.61
323.15 K, 5240 kPa, m1 = 0.09327	776.5
323.15 K, 5300 kPa, m1 = 0.6899	821.26
323.15 K, 9780 kPa, m1 = 0.4379	807.29
323.15 K, 10060 kPa, m1 = 1.266	865.4
323.15 K, 10180 kPa, m1 = 0.6899	825.76
323.15 K, 10340 kPa, m1 = 0.09327	781.44
323.15 K, 10480 kPa, m1 = 0.1743	787.98
323.15 K, 10740 kPa, m1 = 1.55	885.92
323.15 K, 10890 kPa, m1 = 0.9896	847.78
323.15 K, 15020 kPa, m1 = 1.55	889.39
323.15 K, 15060 kPa, m1 = 0.4379	811.96
323.15 K, 15370 kPa, m1 = 0.6899	830.3
323.15 K, 15410 kPa, m1 = 1.266	869.66
323.15 K, 15420 kPa, m1 = 0.9896	851.64
323.15 K, 15620 kPa, m1 = 0.1743	792.67
323.15 K, 15780 kPa, m1 = 0.09327	786.43
323.15 K, 19980 kPa, m1 = 1.266	873.2
323.15 K, 20040 kPa, m1 = 0.4379	816.13
323.15 K, 20060 kPa, m1 = 0.9896	855.4
323.15 K, 20420 kPa, m1 = 1.55	893.5
323.15 K, 20640 kPa, m1 = 0.1743	796.99
323.15 K, 20640 kPa, m1 = 0.6899	834.66
323.15 K, 20980 kPa, m1 = 0.09327	790.93
323.15 K, 24860 kPa, m1 = 1.266	876.87
323.15 K, 24870 kPa, m1 = 0.4379	819.96
323.15 K, 25080 kPa, m1 = 0.9896	859.23
323.15 K, 25310 kPa, m1 = 1.55	896.97
323.15 K, 25390 kPa, m1 = 0.6899	838.36
323.15 K, 25680 kPa, m1 = 0.09327	794.77
323.15 K, 25870 kPa, m1 = 0.1743	801.22
323.15 K, 30020 kPa, m1 = 0.4379	823.82
323.15 K, 30070 kPa, m1 = 1.266	880.67
323.15 K, 30140 kPa, m1 = 1.55	900.16
323.15 K, 30180 kPa, m1 = 0.6899	841.89
323.15 K, 30380 kPa, m1 = 0.1743	804.64
323.15 K, 30390 kPa, m1 = 0.09327	798.4
323.15 K, 30450 kPa, m1 = 0.9896	863.05
323.15 K, 35150 kPa, m1 = 0.4379	827.42
323.15 K, 35160 kPa, m1 = 1.266	884.27
323.15 K, 35210 kPa, m1 = 0.9896	866.21
323.15 K, 35620 kPa, m1 = 1.55	903.49
323.15 K, 35760 kPa, m1 = 0.6899	845.73
323.15 K, 35870 kPa, m1 = 0.09327	802.35
323.15 K, 35920 kPa, m1 = 0.1743	808.56
323.15 K, 39760 kPa, m1 = 0.4379	830.46
323.15 K, 39860 kPa, m1 = 0.09327	805.04
323.15 K, 39870 kPa, m1 = 1.266	887.49
323.15 K, 39940 kPa, m1 = 0.1743	811.21
323.15 K, 39940 kPa, m1 = 0.6899	848.42
323.15 K, 39960 kPa, m1 = 0.9896	869.15
323.15 K, 39980 kPa, m1 = 1.55	905.92
348.15 K, 270 kPa, m1 = 1.266	833.32
348.15 K, 310 kPa, m1 = 1.55	852.87
348.15 K, 580 kPa, m1 = 0.9896	814.32
348.15 K, 620 kPa, m1 = 0.4379	774.92
348.15 K, 750 kPa, m1 = 0.09327	748.39
348.15 K, 750 kPa, m1 = 0.6899	792.97
348.15 K, 890 kPa, m1 = 0.1743	755.18
348.15 K, 5060 kPa, m1 = 0.9896	819.3
348.15 K, 5060 kPa, m1 = 1.266	837.99
348.15 K, 5080 kPa, m1 = 0.6899	797.87
348.15 K, 5090 kPa, m1 = 0.1743	760.16
348.15 K, 5130 kPa, m1 = 0.4379	780.06
348.15 K, 5210 kPa, m1 = 1.55	858.12
348.15 K, 5620 kPa, m1 = 0.09327	754.25
348.15 K, 10160 kPa, m1 = 1.55	863.08
348.15 K, 10240 kPa, m1 = 0.4379	785.57
348.15 K, 10310 kPa, m1 = 0.9896	824.81
348.15 K, 10410 kPa, m1 = 0.6899	803.58
348.15 K, 10450 kPa, m1 = 1.266	843.06
348.15 K, 10480 kPa, m1 = 0.1743	766.21
348.15 K, 10820 kPa, m1 = 0.09327	760.15
348.15 K, 14890 kPa, m1 = 0.6899	808.11
348.15 K, 15210 kPa, m1 = 0.9896	829.63
348.15 K, 15310 kPa, m1 = 0.4379	790.73
348.15 K, 15380 kPa, m1 = 0.09327	765.02
348.15 K, 15680 kPa, m1 = 1.55	868.22
348.15 K, 15760 kPa, m1 = 0.1743	771.77
348.15 K, 15840 kPa, m1 = 1.266	847.95
348.15 K, 19980 kPa, m1 = 1.266	851.59
348.15 K, 20060 kPa, m1 = 0.6899	813.01
348.15 K, 20430 kPa, m1 = 0.09327	770.09
